Several values for one entry are separate records, joined by “and”; a condition that tells them apart may be missing. Equal entries are not always repeated.
Tested on: histone modifications in MCF-7 cells
Assay: Histone modification analysis by bottom-up LC-MS/MS;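 as to Ratio, H2AV 1 19 K11ac*: inhibitor concentrations in µM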;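 as to Ratio, H2AX 4 11 K5acK9ac: inhibitor concentrations in µM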;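 as to Ratio, H2AX 4 11 K9ac: inhibitor concentrations in µM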;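 as to Ratio, H2AZ 1 19 K15ac: inhibitor concentrations in µM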;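 as to Ratio, H2AZ 1 19 K4ac: inhibitor concentrations in µM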;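 as to Ratio, H2AZ 1 19 K4acK11ac: inhibitor concentrations in µM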
Format: cell-based
Source text: In this approach. […] Histones are then extracted from cell pellets and chemically derivatized with propionic anhydride, digested with trypsin, subjected to a second round of propionylation, and analyzed by LC-MS/MS. Measuring the relative intensity of modified versus unmodified forms of individual histone peptides enables simultaneous monitoring of multiple potential biomarkers of MYST inhibition. To minimize false positives, we focused on abundant and reproducible modifications (average stoichiometry of greater than 1% across triplicate samples, standard deviation less than or equal to the average measurement). To account for potential histone modification crosstalk, changes in both acetylated and methylated peptides were evaluated. 38 modified peptides passed this reproducible detection threshold including several established KAT biomarkers[41] including H3K9Ac (KAT2A/B), H3K18Ac (KAT3A/B), H3K14Ac (KAT7), H3K23Ac (KAT6A/B), H4K16Ac (KAT8), and H2A.ZK4/K7Ac (KAT5; Fig. 4B).
Histone modification analysis
MCF-7 cells were cultured at 37 °C under 5% CO2 in EMEM (Quality Biological, 112-016-101) with 0.01 mg/mL human recombinant insulin (Sigma Aldrich, 91077C), 2 mM L-glutamine (Quality Biological, 118- […]
human recombinant insulin.
1119, WM-3835). Following 24 h inhibitor treatment, cells were washed with ice-cold 1× PBS and scraped in 150 µL of Nuclear Isolation Buffer (NIB) containing 0.1% NP-40 for histone extraction using a modified protocol from the Garcia laboratory. 9 Briefly, cell suspensions were incubated on ice for 5 minutes, and […]
nuclei were pelleted by centrifugation (600 rcf, 4°C, 5 min). Pelleted nuclei were washed twice with 150 μL of detergent-free NIB buffer, followed by centrifugation (600 rcf, 4°C, 5 min) to remove all detergent.
Nuclei were then resuspended in 400 μL of 0.4 N H₂SO₄ and rotated at 4°C overnight for acid extraction of histones. The following day, samples were centrifuged (11,000 rcf, 4°C, 10 min) and the histone-containing supernatant was transferred to a fresh tube. Trichloroacetic acid (100% TCA) was added to achieve a final concentration of 20% (v/v), tubes were inverted once to mix, and histone precipitation was performed on ice for at least 3 hours or overnight at 4°C. Precipitated histones were collected by centrifugation (11,000 rcf, 4°C, 10 min) and the supernatant carefully removed, leaving a visible film of histones on the tube wall or bottom. Histone pellets were subjected to sequential washes with 1 mL of ice-cold acidified acetone (0.1% 12 N HCl) followed by 1 mL of 100% ice-cold acetone, with centrifugation (11,000 rcf, 4°C, 5 min) after each wash. Samples were air-dried at room temperature, resuspended in 40 µL of ddH₂O, and protein […]
analysis, 1-2 µg of purified histones were loaded per lane and processed according to the general immunoblotting protocol described in General Materials and Methods.
Analysis of histone modifications by LC-MS/MS
Preparation of histone samples for LC-MS/MS was performed analogously to the procedure for immunoblotting above, with the following modifications. MCF7 cells (4.2 × 106) were seeded in 15 cm dishes and treated with PF-9363 or vehicle. Experiments were performed in triplicate. Following treatment and PBS washing, cells were scraped and collected in 15 mL falcon tubes, pelleted (500 rcf, 4°C, 5 min), resuspended in 1 mL cold PBS, transferred to microcentrifuge tubes, and pelleted again before flash-freezing in liquid nitrogen for storage at -80°C. For extraction, cell pellets (~100 μL) were resuspended in NIB buffer at a 1:10 ratio, and cells were lysed with NIB buffer containing 0.2% NP-40 for 8 minutes on ice. Nuclei were pelleted at 1,000 rcf for 8 minutes and washed three times with 500 μL detergent-free NIB buffer. Histones were extracted using 800 μL of 0.2 M H₂SO₄, and after centrifugation (3,400 rcf, 4°C, 10

[1] = KAT marker KAT5, PF-9363 0.1, Replicates 1-3
[2] = KAT marker KAT5, PF-9363 1, Replicates 1-3
[3] = KAT marker KAT5, PF-9363 10, Replicates 1-3
[4] = KAT marker KAT5, PF-9363 30, Replicates 1-3
[5] = KAT marker KAT5, PF-9363 (0.1 mM)
[6] = KAT marker KAT5, PF-9363 (30 mM)
[7] = KAT marker KAT5, average ratio 0.1 v 30

Q: Which “Ratio, H2AV_1_19 K11ac*” value [1] does the source give for `COc1cccc(OC)c1S(=O)(=O)Nc1noc2cc(Cn3cccn3)cc(OC)c12` [PF-9363] here?
A: Its value is 0.007595 and 0.00642 and 0.01986.

Q: And the “Ratio, H2AX_4_11 K5acK9ac” value [1]?
A: The value was 0.05241 and 0.03954 and 0.03977.

Q: What about the “Ratio, H2AX_4_11 K9ac” value [1] of the same compound?
A: The value was 0.01011 and 0.01143 and 0.00727.

Q: And the “Ratio, H2AZ_1_19 K4ac” value [1]?
A: The value was 0.0934 and 0.07612 and 0.06178.

Q: What about the “Ratio, H2AZ_1_19 K4acK11ac” value [1] of the same compound?
A: Its value is 0.01166 and 0.008639 and 0.01028.

Q: And the “Ratio, H2AZ_1_19 K15ac” value [1]?
A: Its value is 0.004599 and 0.02439 and 0.01482.

Q: And the “Ratio, H2AV_1_19 K11ac*” value [2]?
A: Its value is 0.004474 and 0.01793 and 0.01146.

Q: What about the “Ratio, H2AX_4_11 K5acK9ac” value [2] of the same compound?
A: The value was 0.01434 and 0.002712 and 0.0302.

Q: What about the “Ratio, H2AX_4_11 K9ac” value [2] of the same compound?
A: Its value is 0.009767 and 0.01635 and 0.01121.

Q: And the “Ratio, H2AZ_1_19 K4ac” value [2]?
A: The value was 0.09212 and 0.06375 and 0.07053.

Q: And the “Ratio, H2AZ_1_19 K4acK11ac” value [2]?
A: Its value is 0.007173 and 0.01149 and 0.00767.

Q: What about the “Ratio, H2AZ_1_19 K15ac” value [2] of the same compound?
A: Its value is 0.003136 and 0.01439 and 0.00489.

Q: What about the “Ratio, H2AV_1_19 K11ac*” value [3] of the same compound?
A: Its value is 0.01122 and 0 and 0.008954.

Q: What about the “Ratio, H2AX_4_11 K5acK9ac” value [3] of the same compound?
A: Its value is 0.00945 and 0.08577 and 0.02854.

Q: What about the “Ratio, H2AX_4_11 K9ac” value [3] of the same compound?
A: The value was 0.01063 and 0.01009 and 0.01309.

Q: What about the “Ratio, H2AZ_1_19 K4ac” value [3] of the same compound?
A: The value was 0.08614 and 0 and 0.04884.

Q: What about the “Ratio, H2AZ_1_19 K4acK11ac” value [3] of the same compound?
A: Its value is 0.008371 and 0 and 0.01009.

Q: And the “Ratio, H2AZ_1_19 K15ac” value [3]?
A: Its value is 0.007824 and 0 and 0.01105.

Q: What about the “Ratio, H2AV_1_19 K11ac*” value [4] of the same compound?
A: Its value is 0.005769 and 0.002136 and 0.002357.

Q: And the “Ratio, H2AX_4_11 K5acK9ac” value [4]?
A: The value was 0.04001 and 0.01893 and 0.03445.

Q: And the “Ratio, H2AX_4_11 K9ac” value [4]?
A: The value was 0.01286 and 0.00924 and 0.00685.

Q: And the “Ratio, H2AZ_1_19 K4ac” value [4]?
A: The value was 0 and 0.02795 and 0.04699.

Q: What about the “Ratio, H2AZ_1_19 K4acK11ac” value [4] of the same compound?
A: Its value is 0 (2×) and 0.004492.

Q: And the “Ratio, H2AZ_1_19 K15ac” value [4]?
A: Its value is 0 and 0.01504 and 0.003466.

Q: What about the “Average ratio, H2AV_1_19 K11ac*” value [5] of the same compound?
A: Its value is 0.0113.

Q: What about the “Average ratio, H2AX_4_11 K5acK9ac” value [5] of the same compound?
A: The value was 0.0439.

Q: And the “Average ratio, H2AX_4_11 K9ac” value [5]?
A: The value was 0.0096.

Q: And the “Average ratio, H2AZ_1_19 K4ac” value [5]?
A: The value was 0.0771.

Q: What about the “Average ratio, H2AZ_1_19 K4acK11ac” value [5] of the same compound?
A: Its value is 0.0102.

Q: What about the “Average ratio, H2AZ_1_19 K15ac” value [5] of the same compound?
A: The value was 0.0146.

Q: What about the “Average ratio, H2AV_1_19 K11ac*” value [6] of the same compound?
A: Its value is 0.0034.

Q: And the “Average ratio, H2AX_4_11 K5acK9ac” value [6]?
A: Its value is 0.0311.

Q: And the “Average ratio, H2AX_4_11 K9ac” value [6]?
A: The value was 0.0097.

Q: And the “Average ratio, H2AZ_1_19 K4ac” value [6]?
A: The value was 0.0250.

Q: What about the “Average ratio, H2AZ_1_19 K4acK11ac” value [6] of the same compound?
A: The value was 0.0015.

Q: What about the “Average ratio, H2AZ_1_19 K15ac” value [6] of the same compound?
A: Its value is 0.0062.

Q: And the “Fold-change 0.1 v 30, H2AV_1_19 K11ac*” value [7]?
A: Its value is 3.30.

Q: And the “Fold-change 0.1 v 30, H2AX_4_11 K5acK9ac” value [7]?
A: The value was 1.41.

Q: What about the “Fold-change 0.1 v 30, H2AX_4_11 K9ac” value [7] of the same compound?
A: The value was 1.00.

Q: What about the “Fold-change 0.1 v 30, H2AZ_1_19 K4ac” value [7] of the same compound?
A: Its value is 3.09.

Q: What about the “Fold-change 0.1 v 30, H2AZ_1_19 K4acK11ac” value [7] of the same compound?
A: Its value is 6.81.

Q: What about the “Fold-change 0.1 v 30, H2AZ_1_19 K15ac” value [7] of the same compound?
A: The value was 2.37.

Q: What about the “Fold-change 0.1 v 30, H3_18_26 unmod” value (KQLATKAAR(H3_18_26), PF-9363 0.1 v 30) of the same compound?
A: The value was 0.96.

Q: And the “Average ratio, H3_18_26 unmod” value (KQLATKAAR(H3_18_26), PF-9363 (0.1 mM))?
A: The value was 0.9434.

Q: What about the “Average ratio, H3_18_26 unmod” value (KQLATKAAR(H3_18_26), PF-9363 (30 mM)) of the same compound?
A: The value was 0.9781.

Q: And the “Ratio, H3_73_83 K79me1” value (PF-9363 0.1, Replicates 1-3)?
A: The value was 0.07799 and 0.09275 and 0.09546.

Q: What about the “Ratio, H3_73_83 K79me2” value (PF-9363 0.1, Replicates 1-3) of the same compound?
A: Its value is 0.05292 and 0.1051 and 0.06234.

Q: What about the “Ratio, H3_73_83 unmod” value (PF-9363 0.1, Replicates 1-3) of the same compound?
A: The value was 0.8672 and 0.8006 and 0.8413.

Q: And the “Ratio, H4_4_17 K12acK16ac” value (PF-9363 0.1, Replicates 1-3)?
A: The value was 0.009379 and 0.008608 and 0.009722.

Q: What about the “Ratio, H4_4_17 unmod” value (PF-9363 0.1, Replicates 1-3) of the same compound?
A: Its value is 0.6357 and 0.6297 and 0.6309.

Q: And the “Ratio, H4_20_23 K20me1” value (PF-9363 0.1, Replicates 1-3)?
A: Its value is 0.02877 and 0.03606 and 0.02758.

Q: And the “Ratio, H4_20_23 unmod” value (PF-9363 0.1, Replicates 1-3)?
A: Its value is 0.03039 and 0.02967 and 0.02773.

Q: And the “Fold-change 0.1 v 30, H2A1_12_17 unmod (AKAKTR)” value (PF-9363 0.1 v 30, peptide H2A1_12_17 unmod, MCF-7)?
A: Its value is 0.98.

Q: What about the “Fold-change 0.1 v 30, H2A3_12_17 K15me1 (AKAKSR)” value (PF-9363 0.1 v 30, peptide H2A3_12_17 K15me1, MCF-7) of the same compound?
A: Its value is 0.96.

Q: What about the “Ratio, H2A1_1_11 K5ac” value (PF-9363 1, Replicates 1-3) of the same compound?
A: The value was 0.9077 and 0.9494 and 0.9116.

Q: And the “Ratio, H2A1_4_11 K5ac” value (PF-9363 1, Replicates 1-3)?
A: The value was 0.06275 and 0.03204 and 0.05607.

Q: What about the “Ratio, H2A1_4_11 K9ac” value (PF-9363 1, Replicates 1-3) of the same compound?
A: Its value is 0.0308 and 0.06179 and 0.03113.

— article doi:10.1101/2025.04.25.650653, “Hierarchical small molecule inhibition of MYST acetyltransferases” (bioRxiv, 2025)
